Entries after “also recorded” stand apart in the source; their conditions may differ. Read-outs that look alike come from different tables or passages of the source.
Key:
[1] = system: T Cells; experiment: Immunosuppressive activity assay: T cells inhibitory activity; assay type: cell-based; conditions: T-cell; Table 10
[2] = molecular target: T1, FKBP-12 protein (Homo sapiens, UniProt P62942); experiment: SPR (surface plasma resonance) binding with FKBP-12
T1 construct: purchased sigma Co
Procedure: (1) FKBP-12 protein was purchased from sigma Co.
(2) HBS-EP buffer solution (10 mM Hepes, 150 mM NaCl, 3.4 mM EDTA, 0.005% (v/v) surfactant P20, pH 7.4)
(3) Activating reagents EDC and NHS, and blocking reagents Ethanolamine, etc., were purchased from BIACORE AB Co. (Uppsala, Sweden).
(4) BIAcore 3000 and CM5 chip were purchased from BIACORE AB Co. (Uppsala, Sweden).
(2) […] was coupled to the FC2 channel on CM5 chip by using the Wizard for amino-coupling in Biacore 3000 controlling soft. 3.3 g/L of FKBP-12 protein was diluted with 10 mM NaAC (pH 4.6) to 66 μg/ml. The surface of the chip was washed by injecting a mixture of 0.1M1-(3-dimethylaminopropyl)-3-ethylcarbodiimide hydrochloride (EDCI) and 0.1M N-hydroxysuccinimide (NHS) (1:1) at a flow rate of 20 μL/min for 7 min. After that, the protein solution was injected, and then a 1M cholamine (pH 8.5) solution was fed for 7 min to block the activated surface of the chip. Preliminary screening and pharmacokinetic tests on the compounds
The binding abilities of small molecular compounds with FKBP-12 protein were evaluated by SPR (surface plasma resonance). The stock solution of the compound was 10 mM, and was diluted by HBS-EP buffer solution at given ratios. Pharmacokinetic tests were carried out by the Wizard for kinetic analysis in Biacore 3000 controlling soft. The resulted data were fitted by 1:1 Langmuir binding model or stability model in Biacore 3000 analytical soft to obtain the exact kinetic and thermodynamic constants.

[3] = system: phosphorylation levels of p70S6K and 4E-BP1; experiment: Western blotting of mTOR downstream substrate phosphorylation in tumor cells; assay type: cell-based, human; conditions: Rh30, PC-3, MCF-7 and CAKI-1 cells, 1 hour treatment, IGF stimulation, FIG. 2
Procedure: Cells were inoculated on a 12-well plate with given densities and allowed to attach overnight. Then the medium was changed to a serum-free one. After starved for 24 hours, the cells were treated with the compound at corresponding concentrations for 1 hour, and then stimulated by IGF for 10 min. The cells were collected, and the phosphorylation levels of p70S6K and 4E-BP1 in the cells were measured by using Western blotting.

[4] = system: Rh30 cells; experiment: SRB growth inhibition, Rh30 cells; assay type: cell-based, human; conditions: SRB method, 72 hours, different concentrations, FIG. 1
Procedure: (§1) After Rh30 cells were treated by the compound at different concentrations, the cell survival rate was detected by SRB method.
(§2) The above various kinds of tumor cells in logarithmic growth phase were inoculated on a 96-well plate with 90 μl per well, and allowed to attach for 24 hours, followed by the addition of the compound with 10 μl per well. For each concentration, the test was carried out in triplicate wells, and included a control well containing the aqueous medium of normal saline at the corresponding concentration and a blank well without cells for zeroing. The tumor cells were cultured for 72 hours at 37° C. and 5% CO2, and then the culture medium was removed. The cells were fixed with cold 10% TCA (trichloroacetic acid) at 4° C. for 1 hour, then washed with distilled water for 5 times, and dried at room temperature, followed by addition of a SRB (Sigma) solution (4 mg/ml) in 1% glacial acetic acid at 100 μl per well. The cells were stained at room temperature for 15 min, and the supernatant was removed. The plate was washed by 1% acetic acid for 5 times and dried at room temperature. Finally, Tris-solution was added at 150 μl per well, and the A value was measured at a wavelength of 520 nm on an ELISA Reader.

[5] = system: HL-60 cells; experiment: SRB growth inhibition, HL-60 cells; assay type: cell-based, human; conditions: SRB method, 72 hours, different concentrations, FIG. 1
Procedure: as §1, §2

[6] = system: MCF-7 cells; experiment: SRB growth inhibition, MCF-7 cells; assay type: cell-based, human; conditions: SRB method, 72 hours, different concentrations, FIG. 1
Procedure: as §1, §2

[7] = system: human prostate cancer PC-3 xenograft; experiment: PC-3 xenograft on nude mice; conditions: 1-5 × 3.5 w; for TV (mm3) d0: baseline
[8] = system: CAKI-1 cells; experiment: SRB growth inhibition, CAKI-1 cells; assay type: cell-based, human; conditions: SRB method, 72 hours, different concentrations, FIG. 1
Procedure: as §1, §2

[9] = Immunosuppressive activity assay: cytotoxicity; assay type: cell-based
[10] = system: PC-3 cells; experiment: SRB growth inhibition, PC-3 cells; assay type: cell-based, human; conditions: SRB method, 72 hours, different concentrations, FIG. 1
Procedure: as §1, §2

[11] = system: human rhabdomyosarcoma RH-30 xenograft; experiment: RH-30 xenograft on nude mice; conditions: for TV (mm^3) d0: baseline;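 as to all read-outs here: male BALB/cA nude mice with subcutaneous RH-30 tumors, oral dosing versus solvent-fed controls, caliper tumor volume, RTV relative to grouping day, T/C as treated RTV over control RTV ×100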
Excerpt: Animals: BALB/cA nude mice, male, 40-45 days old, body weight: 21±2 g, provided by Shanghai Institute of Materia Medica, Chinese Academy of Sciences. License No.: SCXK (Shanghai) 2004-0002. Animal number in each group: 6 in negative control group, and 6 in administration group.
The amount of inoculated cells was 5×10^6. After the xenograft was formed by inoculation, it was used after passed for 3 generations in nude mice.

[12] = Table 2, 5 mg/kg p.o, 1-5 × 3 w
[13] = Table 2, 10 mg/kg p.o, 1-5 × 3 w

T1 sequence (P62942 whole entry, species assumed): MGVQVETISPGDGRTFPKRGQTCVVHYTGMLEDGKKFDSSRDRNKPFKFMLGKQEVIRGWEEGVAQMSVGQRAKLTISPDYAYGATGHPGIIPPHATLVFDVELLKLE

IC50 [1]: 9.1 µM
binding with FKBP12 [2]: concentration-dependently bind
Kd ([2]; FKBP12): 0.00026 µM
koff ([2]; FKBP12): 0.14 × 10^−3 S^−1
kon ([2]; FKBP12): 5.24 × 10^5 M^−1S^−1
R^U (Response Unit) compared with rapamycin ([2]; at the same concentration): higher
concentration to reach the saturation state for the binding with FKBP12 ([2]; compared with rapamycin): lower than that for rapamycin
Structure (SMILES): CO[C@H]1CC2CC[C@@H](C)[C@@](O)(O2)C(=O)C(=O)N2CCCCC2C(=O)O[C@H]([C@H](C)C[C@@H]2CC[C@@H](OC(=O)OCC(O)CO)[C@H](OC)C2)CC(=O)[C@H](C)/C=C(\C)[C@@H](OC(=O)OCC(O)CO)[C@@H](OC)C(=O)[C@H](C)C[C@H](C)/C=C/C=C/C=C/1C (stereo partly shown) [Y50]
inhibition of mTOR-catalyzed phosphorylation of p70S6K and 4E-BP1 [3]: concentration-dependently suppress; also recorded: comparable inhibitory effects to those of rapamycin
inhibitory effects on the growth of Rh30 cells [4]: comparable to those of rapamycin
inhibitory effects on the growth of HL-60 cells [5]: comparable to those of rapamycin
inhibitory effects on the growth of MCF-7 cells [6]: comparable to those of rapamycin
Body Weight (g) end ([7]; Table 3, 2.5 mg/kg p.o): 17.7 g
Body Weight (g) start ([7]; Table 3, 2.5 mg/kg p.o): 19.7 g
RTV ([7]; Table 3, 2.5 mg/kg p.o): 2.6 ± 1.1
T/C (%) ([7]; Table 3, 2.5 mg/kg p.o): 40.2%
TV (mm3) d21 ([7]; Table 3, 2.5 mg/kg p.o): 273 ± 163 mm3
TV (mm3) d0 ([7]; Table 3, 2.5 mg/kg p.o): 103 ± 35 mm3
Body Weight (g) end ([7]; Table 3, 5 mg/kg p.o): 22.3 g
Body Weight (g) start ([7]; Table 3, 5 mg/kg p.o): 22.7 g
RTV ([7]; Table 3, 5 mg/kg p.o): 0.65 ± 0.4
T/C (%) ([7]; Table 3, 5 mg/kg p.o): 10.0%
TV (mm3) d21 ([7]; Table 3, 5 mg/kg p.o): 70 ± 59 mm3
TV (mm3) d0 ([7]; Table 3, 5 mg/kg p.o): 98 ± 42 mm3
inhibitory effects on the growth of CAKI-1 cells [8]: comparable to those of rapamycin
Safety Index CC50/IC50 ([9]; Table 10): >10.9
CC50 ([9]; Table 10, value beyond the >100 μM bound, read-out: Cytotoxicity CC50, value in brackets): 7590 µM
CC50 ([9]; Table 10, read-out: Cytotoxicity CC50): > 100 µM
inhibitory effects on the growth of PC-3 cells [10]: comparable to those of rapamycin
Body Weight (g) end [11, 12]: 25.8 g
Body Weight (g) start [11, 12]: 22.2 g
RTV [11, 12]: 2.9 ± 0.5
T/C (%) [11, 12]: 32.5%
TV (mm^3) d21 [11, 12]: 380 ± 146 mm^3
TV (mm^3) d0 [11, 12]: 132 ± 47 mm^3
Body Weight (g) end [11, 13]: 26.0 g
Body Weight (g) start [11, 13]: 23.0 g
RTV [11, 13]: 3.5 ± 1.1
T/C (%) [11, 13]: 32.9%
TV (mm^3) d21 [11, 13]: 415 ± 71 mm^3
TV (mm^3) d0 [11, 13]: 130 ± 50 mm^3
Body Weight (g) end ([11]; Table 4, 5 mg/kg po, 1-5/2 w): 21.5 g
Body Weight (g) start ([11]; Table 4, 5 mg/kg po, 1-5/2 w): 20.0 g
RTV ([11]; Table 4, 5 mg/kg po, 1-5/2 w): 2.0 ± 0.5
T/C (%) ([11]; Table 4, 5 mg/kg po, 1-5/2 w): 46.6%
TV (mm^3) d14 ([11]; Table 4, 5 mg/kg po, 1-5/2 w): 323 ± 124 mm^3
TV (mm^3) d0 ([11]; Table 4, 5 mg/kg po, 1-5/2 w): 160 ± 47 mm^3
